Target: SOS1:KRAS (G12C) interaction (Homo sapiens (Human), UniProt Q07889)
Experiment: SOS1-KRas(G12C) FRET Assay
Assay type: binding
Settings: 0.5 nM His10-SOS1 (res. 564-1049), 2.5 nM GST-KRAS (res. 1-169, G12C); read-out: SOS-KRas(G12C) FRET IC50
Description: Inhibition of the SOS1:KRAS interaction was measured using purified GST-tagged KRAS (res. 1-169, G12C, purified based on Hillig, et al., Proc Natl Acad Sci USA (2019); 116(7):2551-2560) and recombinant His10-SOS1 (res. 564-1049; purified based on Hillig, et al.). The final assay was performed at 20 uL with 0.5 nM SOS1 protein and 2.5 nM KRAS protein in a buffer of PBS, 0.1% BSA, 5 mM MgCl2, 0.0025% Igepal, 100 mM KF, 5 mM DTT in a white 384 square well OptiPlate (PerkinElmer, Cat. 6007290). A 2× KRAS working solution was prepared in an assay buffer containing 5 nM GST-KRAS G12C and 2 nM anti-GST-Eu(K) (Cisbio, Cat. 61GSTKLA) and pre-incubated for 15 minutes at 25° C. Compounds were serially diluted in 100% DMSO from 2 mM (positive control, compound I-13, PCT Publ. No. WO2018/115380) or 20 mM and then diluted 1:20 in assay buffer before incubation with a solution of SOS1 protein mixed 1:5 with anti-6His-XL665 FRET donor (Cisbio, Cat. 61HISXL) for 15 minutes at 25° C. before addition of 2× KRAS working solution. The final DMSO concentration is 0.5%. Plates were incubated at RT for 2 hrs before the FRET signal was measured using Envision at emission 665 nm and 615 nm. FRET signal was converted to percentage of protein-protein interaction using the following equation:
[formula] • C: signal with compound treatment • P: signal for positive control (DMSO) • N: signal for negative control (no SOS1 added) • IC50 and Hill coefficients were obtained using Graph Pad Prism (Graph Pad software, Inc, USA) with non-linear regression analysis.

Sequence of SOS1:KRAS (G12C) interaction (Q07889 564-1049, stated change not applied): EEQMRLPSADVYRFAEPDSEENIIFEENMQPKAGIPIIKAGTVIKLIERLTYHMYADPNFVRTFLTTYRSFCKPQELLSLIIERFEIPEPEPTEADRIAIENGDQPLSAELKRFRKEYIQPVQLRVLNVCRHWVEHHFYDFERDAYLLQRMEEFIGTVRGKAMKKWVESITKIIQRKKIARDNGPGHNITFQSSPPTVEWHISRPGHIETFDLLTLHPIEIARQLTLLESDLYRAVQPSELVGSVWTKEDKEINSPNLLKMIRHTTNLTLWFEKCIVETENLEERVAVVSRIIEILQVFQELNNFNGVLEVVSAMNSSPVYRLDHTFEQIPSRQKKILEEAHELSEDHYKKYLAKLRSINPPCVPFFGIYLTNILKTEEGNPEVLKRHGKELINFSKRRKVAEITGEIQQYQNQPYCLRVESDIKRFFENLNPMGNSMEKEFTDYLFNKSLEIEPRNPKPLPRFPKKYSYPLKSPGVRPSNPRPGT

## Cc1c([C@@H](C)Nc2nn(C)c(=O)c3cc(=O)n([C@H]4C[C@@H]4c4cncc(F)c4)cc23)cccc1C(F)(F)F (single isomer, unassigned) [Example 91]
  IC50: 97.4 nM

## Cc1c([C@@H](C)Nc2nn(C)c(=O)c3cc(=O)n([C@@H]4C[C@H]4c4cncc(F)c4)cc23)cccc1C(F)(F)F (single isomer, unassigned) [Example 92]
  IC50: 567 nM

## C[C@@H](Nc1nn(C)c(=O)c2cc(=O)n([C@H]3C[C@@H]3c3cncc(F)c3)cc12)c1cccc(C(F)F)c1F (single isomer, unassigned) [Example 93]
  IC50: 60.8 nM

## C[C@@H](Nc1nn(C)c(=O)c2cc(=O)n([C@@H]3C[C@H]3c3cncc(F)c3)cc12)c1cccc(C(F)F)c1F (single isomer, unassigned) [Example 94]
  IC50: 378 nM

## C[C@@H](Nc1nn(C)c(=O)c2cc(=O)n([C@]3(C(F)(F)F)CCNC3)cc12)c1cccc(C(F)F)c1F (single isomer, unassigned) [Example 95]
  IC50: 394 nM

## C[C@@H](Nc1nn(C)c(=O)c2cc(=O)n([C@@]3(C(F)(F)F)CCNC3)cc12)c1cccc(C(F)F)c1F (single isomer, unassigned) [Example 96]
  IC50: 29.2 nM

## C[C@@H](Nc1nn(C)c(=O)c2cc(=O)n([C@@]3(C(F)(F)F)CCN(C)C3)cc12)c1cccc(C(F)F)c1F (single isomer, unassigned) [Example 97]
  IC50: 65.6 nM

## C[C@@H](Nc1nn(C)c(=O)c2cc(=O)n([C@]3(C(F)(F)F)CCN(C)C3)cc12)c1cccc(C(F)F)c1F (single isomer, unassigned) [Example 98]
  IC50: 989 nM

## CC(=O)N1CC[C@@](n2cc3c(N[C@H](C)c4cccc(C(F)F)c4F)nn(C)c(=O)c3cc2=O)(C(F)(F)F)C1 (single isomer, unassigned) [Example 99]
  IC50: 9.03 nM

## CC(=O)N1CC[C@](n2cc3c(N[C@H](C)c4cccc(C(F)F)c4F)nn(C)c(=O)c3cc2=O)(C(F)(F)F)C1 (single isomer, unassigned) [Example 100]
  IC50: 1920 nM

## C[C@@H](Nc1nn(C)c(=O)c2cc(=O)n([C@@]3(C(F)F)CCOC3)cc12)c1cccc(C(F)F)c1F (single isomer, unassigned) [Example 119]
  IC50: 411 nM

## C[C@@H](Nc1nn(C)c(=O)c2cc(=O)n([C@]3(C(F)F)CCOC3)cc12)c1cccc(C(F)F)c1F (single isomer, unassigned) [Example 120]
  IC50: 19.9 nM

## C[C@@H](Nc1nn(C)c(=O)c2cc(=O)n([C@H]3CCC(F)(F)C3)cc12)c1cccc(C(F)F)c1F (single isomer, unassigned) [Example 121]
  IC50: 125 nM

## C[C@@H](Nc1nn(C)c(=O)c2cc(=O)n([C@@H]3CCC(F)(F)C3)cc12)c1cccc(C(F)F)c1F (single isomer, unassigned) [Example 122]
  IC50: 315 nM

## C[C@@H](Nc1nn(C)c(=O)c2cc(=O)n([C@@H]3CC34CC4)cc12)c1cccc(C(F)F)c1F (single isomer, unassigned) [Example 128]
  IC50: 287 nM

## C[C@@H](Nc1nn(C)c(=O)c2cc(=O)n([C@H]3CC34CC4)cc12)c1cccc(C(F)F)c1F (single isomer, unassigned) [Example 129]
  IC50: 112 nM

## C[C@@H](Nc1nn(C)c(=O)c2cc(=O)n([C@H]3CC34CCC(F)(F)CC4)cc12)c1cccc(C(F)F)c1F (single isomer, unassigned) [Example 130]
  IC50: 82.6 nM

## C[C@@H](Nc1nn(C)c(=O)c2cc(=O)n([C@@H]3CC34CCC(F)(F)CC4)cc12)c1cccc(C(F)F)c1F (single isomer, unassigned) [Example 131]
  IC50: 277 nM

## C[C@@H](Nc1nn(C)c(=O)c2cc(=O)n([C@@H]3CC3(C)C)cc12)c1cccc(C(F)F)c1F (single isomer, unassigned) [Example 132]
  IC50: 152 nM

## C[C@@H](Nc1nn(C)c(=O)c2cc(=O)n([C@H]3CC3(C)C)cc12)c1cccc(C(F)F)c1F (single isomer, unassigned) [Example 133]
  IC50: 245 nM

## C[C@@H](Nc1nn(C)c(=O)c2cc(=O)n([C@H]3C[C@@H]3C3CC3)cc12)c1cccc(C(F)F)c1F (single isomer, unassigned) [Example 135]
  IC50: 70.5 nM

## C[C@@H](Nc1nn(C)c(=O)c2cc(=O)n([C@@H]3C[C@H]3C3CC3)cc12)c1cccc(C(F)F)c1F (single isomer, unassigned) [Example 136]
  IC50: 185 nM

## C[C@@H](Nc1nn(C)c(=O)c2cc(=O)n([C@H]3C[C@@H]3C(F)(F)F)cc12)c1cccc(C(F)F)c1F (single isomer, unassigned) [Example 137]
  IC50: 91.2 nM

## C[C@@H](Nc1nn(C)c(=O)c2cc(=O)n([C@@H]3C[C@H]3C(F)(F)F)cc12)c1cccc(C(F)F)c1F (single isomer, unassigned) [Example 138]
  IC50: 434 nM

## CC(=O)N1C[C@H]2C[C@@]2(n2cc3c(N[C@H](C)c4cccc(C(F)F)c4F)nn(C)c(=O)c3cc2=O)C1 (single isomer, unassigned) [Example 139]
  IC50: 120 nM

## CC(=O)N1C[C@@H]2C[C@]2(n2cc3c(N[C@H](C)c4cccc(C(F)F)c4F)nn(C)c(=O)c3cc2=O)C1 (single isomer, unassigned) [Example 140]
  IC50: 31.3 nM

## C[C@@H](Nc1nn(C)c(=O)c2cc(=O)n([C@@]34C[C@@H]3CN(C(=O)C3CC3)C4)cc12)c1cccc(C(F)F)c1F (single isomer, unassigned) [Example 141]
  IC50: 25 nM

## C[C@@H](Nc1nn(C)c(=O)c2cc(=O)n([C@]34C[C@H]3CN(C(=O)C3CC3)C4)cc12)c1cccc(C(F)F)c1F (single isomer, unassigned) [Example 142]
  IC50: 77.2 nM

## CC(=O)N1CC[C@@](C)(n2cc3c(N[C@H](C)c4cccc(C(F)F)c4F)nn(C)c(=O)c3cc2=O)C1 (single isomer, unassigned) [Example 143]
  IC50: 7.8 nM

## CC(=O)N1CC[C@](C)(n2cc3c(N[C@H](C)c4cccc(C(F)F)c4F)nn(C)c(=O)c3cc2=O)C1 (single isomer, unassigned) [Example 144]
  IC50: 209 nM

## COc1c(=O)n([C@@]2(C(F)(F)F)CCOC2)cc2c(N[C@H](C)c3cccc(C(F)F)c3F)nn(C)c(=O)c12 (single isomer, unassigned) [Example 157]
  IC50: 24.2 nM

## COc1c(=O)n([C@]2(C(F)(F)F)CCOC2)cc2c(N[C@H](C)c3cccc(C(F)F)c3F)nn(C)c(=O)c12 (single isomer, unassigned) [Example 158]
  IC50: 382 nM

## C[C@@H](Nc1nn(C)c(=O)c2cc(=O)n([C@@]3(C(F)(F)F)CCOC3)cc12)c1cccc(C(F)F)c1F (single isomer, unassigned) [Example 164]
  IC50: 19.3 nM

## C[C@@H](Nc1nn(C)c(=O)c2cc(=O)n([C@]3(C(F)(F)F)CCOC3)cc12)c1cccc(C(F)F)c1F (single isomer, unassigned) [Example 165]
  IC50: 424 nM

## C[C@@H](Nc1nn(C)c(=O)c2cc(=O)n([C@@]3(C(F)(F)F)CCOC3)cc12)c1cccc2c(F)coc12 (single isomer, unassigned) [Example 166]
  IC50: 34.8 nM

## C[C@@H](Nc1nn(C)c(=O)c2cc(=O)n([C@]3(C(F)(F)F)CCOC3)cc12)c1cccc2c(F)coc12 (single isomer, unassigned) [Example 167]
  IC50: 607 nM

## C[C@@H](Nc1nn(C)c(=O)c2cc(=O)n([C@@]3(C(F)(F)F)CCOC3)cc12)c1cccc2c1OCC2(F)F (single isomer, unassigned) [Example 168]
  IC50: 13.5 nM

## C[C@@H](Nc1nn(C)c(=O)c2cc(=O)n([C@]3(C(F)(F)F)CCOC3)cc12)c1cccc2c1OCC2(F)F (single isomer, unassigned) [Example 169]
  IC50: 262 nM

## CC(=O)N1CC[C@@](n2cc3c(N[C@H](C)c4cccc5c4OCC5(F)F)nn(C)c(=O)c3cc2=O)(C(F)(F)F)C1 (single isomer, unassigned) [Example 170]
  IC50: 6.5 nM

## CC(=O)N1CC[C@](n2cc3c(N[C@H](C)c4cccc5c4OCC5(F)F)nn(C)c(=O)c3cc2=O)(C(F)(F)F)C1 (single isomer, unassigned) [Example 171]
  IC50: 1740 nM

## CC(=O)N1CC[C@@](n2cc3c(N[C@H](C)c4cccc5c(F)coc45)nn(C)c(=O)c3cc2=O)(C(F)(F)F)C1 (single isomer, unassigned) [Example 172]
  IC50: 13.8 nM

## CC(=O)N1CC[C@](n2cc3c(N[C@H](C)c4cccc5c(F)coc45)nn(C)c(=O)c3cc2=O)(C(F)(F)F)C1 (single isomer, unassigned) [Example 173]
  IC50: 2790 nM

## C[C@@H](Nc1nn(C)c(=O)c2cc(=O)n(C3CC3)cc12)c1cccc2ccccc12 [Example 1, (R)-6-cyclopropyl-2-methyl-4-((1-(naphthalen-1-yl)ethyl)amino)-2,6-dihydropyrido[3,4-d]pyridazine-1,7-dione]
  IC50: 1030 nM

— patent US20240279221A1, “HETEROCYCLIC COMPOUNDS AND METHODS OF USE” (Schrödinger, Inc., priority 2021, published 2024)
